Here are results for one molecule from patent US20240366648A1, “NAD-AUGMENTATION THERAPY FOR PARKINSON'S DISEASE” (Vestlandets Innovasjonsselskap AS (VIS), priority 2021, published 2024).

SMILES strings stand for the structures.

The test system of series [1] is yeast. The settings on record: Belenky et al. 2007; cited from earlier work.
The test system of series [2] is individuals with Parkinson's disease. The series can be described thus: High-dose NR safety study in PD (Example 5). The series is classed as in vivo, human. The settings on record: oral NR 3000 mg daily, 4 weeks. Here is the method: • To determine the safety of oral NR 3000 mg daily for a period of 4 weeks in individuals with Parkinson's disease (PD). Safety is defined as the absence of NR-associated moderate or severe adverse events (AE).
This is a single center, phase I double blinded, randomized, placebo controlled drug-safety study.
20 patients are included in this study: 10 receiving 3000 mg oral NR and 10 receiving placebo.
Each capsule of NR contains 250 mg of NR. Patients administer orally 6 capsules (1500 mg) two times daily (3000 mg daily total) for the duration of the study (4 weeks). Placebo capsules are administered similarly (6 capsules two times daily). The study medication is to be taken every day during the treatment period, including prior to study visits.
An adverse event (AE) can therefore be any unfavourable and unintended sign (including an abnormal laboratory finding), symptom, or disease temporally associated with the use of a investigational product, whether or not related to the investigational product. The term AE is used to include both serious and non-serious AEs. If an abnormal laboratory value/vital sign is associated with clinical signs and symptoms, the sign/symptom is reported as an AE and the associated laboratory result/vital sign is considered as additional information that must be collected. Only intensity 2 and 3 is registered as AE. […]

Take `NC(=O)c1ccc[n+]([C@@H]2O[C@H](CO)[C@@H](O)[C@H]2O)c1` [NR, nicotinamide riboside]: the lifespan in yeast entry in series [1] is on record as “extends lifespan”. In series [2], the “adverse events reported throughout the study” value is “no serious adverse events or any adverse events of medical significance”.
